tested on: NRG1-ERBB4 signaling; assay: Nrg1-ERBB4-PIK3R1 split TEV co-culture compound screen of the NIH Clinical Collection; format: cell-based, human; details: not given
Source text: For our HTS‐compatible split TEV assay approach, human full‐length ERBB4‐Cyt1 was fused to the NTEV fragment, a TEV protease cleavage site (tevS) and the artificial co‐transcriptional activator Gal4‐VP16 (ERBB4‐NTEV‐tevS‐GV); human PIK3R1 was fused to the CTEV fragment (PIK3R1‐CTEV) (Fig 1A). Upon ERBB4 activation, PIK3R1 is recruited to the receptor resulting in a reconstituted protease activity that cleaves off GV. In turn, released GV translocates to the nucleus and binds to upstream activating sequences (UAS) to activate the transcription of a firefly luciferase reporter gene (Fig 1A). A constitutively expressed Renilla luciferase driven under the control of the human thymidine kinase (TK) promoter was used as control to address off‐target effects related to toxicity.
For small molecule screening, the NIH‐NCC Clinical Collection library (sets NCC‐003 and NCC‐201) was used containing 727 small molecules that are FDA‐approved and have a history in clinical applications (www.nihclinicalcollection.com). A Hamilton Labstar robot connected to 37 and 4°C incubators for cell incubation and compound storage and application (Cytomat automated incubator, ThermoScientific) and to a luciferase reader (Berthold Technologies) was used to automatically perform the screening. […] Each batch was screened three times.
For one 96‐well plate, 4 × 10^6 PC12 cells were harvested and diluted in 5 ml assay medium (phenol red‐free DMEM (low glucose, Life Technologies), 10% FCS, 5% HS, no antibiotics). The split TEV assay plasmids (2 μg pcDNA3_ERBB4‐NTEV‐tevS‐GV‐2xHA, 2 μg pTag4C_PIK3R1‐CTEV‐2xHA, 2 μg p5xUAS_firefly luciferase, 2 μg pTK_Renilla luciferase, and 0.5 μg pECFP‐C1 for examining transfection efficiency) were diluted in 2.5 ml Opti‐MEM (Life Technologies) and vortexed. In parallel, 20 μl of the transfection reagent Lipofectamine 2000 was diluted in 2.5 ml Opti‐MEM and vortexed.
For plating of one 96‐well plate, 10 ml suspension, containing the 4 × 10^6 in solution‐transfected cells, was placed in the bubble paddle reservoir of the Hamilton Cellstar robot. 100 μl was seeded per 96‐well using the 96‐tip pipetting head. The homogeneity of the cell suspension was guaranteed over time by mild stirring using the paddling device inside the reservoir. For five plates each, 50 ml of additional cell suspension was used to allow for losses of inaccessible volume.
The cells were allowed to express the plasmids for 24 h before compounds were added. Proper expression and transfection efficiency were verified by ECFP expression on a clear control plate. The compounds were applied in a final concentration of 10 μM using DMSO as diluent. […] Thirty minutes later, 10,000 Nrg1‐expressing PC12 cells in 100 μl assay medium were seeded on top. 24 h after addition of the compounds, the cells were lysed using 40 μl Passive Lysis buffer (Promega) and subjected to a Dual Luciferase Assay (Promega) according to the manufacturer's instructions. The data were analyzed in R Bioconductor using the package cellHTS2 (http://www.bioconductor.org/packages/devel/bioc/html/cellHTS2.html), assessed using the z‐score, and visualized using the program Mondrian (http://stats.math.uni-augsburg.de/mondrian/).

| SMILES | Z-SCORE |
| --- | --- |
| Cl.Nc1c2c(nc3ccccc13)CCCC2 | 1.29 |
| CNC(=N)NCCC[C@H](N)C(=O)O | -0.42 |

same assay, conditions: NIH Clinical Collection NCC-003 raw data; compounds ranked by Z-score; 'flagged' given instead of a Z-score

| SMILES | Z-SCORE |
| --- | --- |
| Nc1ccn([C@@H]2O[C@H](CO)[C@@H](O)[C@@H]2O)c(=O)n1 | -1.99 |
| COc1ccc(/C=C/C(=O)Nc2ccccc2C(=O)O)cc1OC | -1.17 |
| Br.COc1ccc2c(c1)[C@@]13CCCC[C@H]1[C@@H](C2)N(C)CC3 | -1.1 |
| COC(=O)C1=C(C)NC(C)=C(C(=O)O[C@@H]2CCCN(Cc3ccccc3)C2)[C@@H]1c1cccc([N+](=O)[O-])c1.Cl (racemic) [BENIDIPINE HCl] | -1.41 |
| Nc1nc(Cl)nc2c1ncn2[C@H]1C[C@H](O)[C@@H](CO)O1 [2-Chloro-2'-deoxyadenosine, reference compound] | -3.5 |
| OCc1cccnc1 [3-PYRIDINEMETHANOL] | -1.1 |
| CCCCCCCCCOc1ccc2[nH]cc(CCN)c2c1 [5-Nonyloxytryptamine] | flagged |
| O=c1cnn([C@@H]2O[C@H](CO)[C@@H](O)[C@H]2O)c(=O)[nH]1 [6-AZAURIDINE] | -1.32 |

same assay, conditions: compound screen of the NIH Clinical Collection, sheet raw data NCC-003; compounds ranked by Z-score

| SMILES | Z-SCORE |
| --- | --- |
| Cc1ncc([N+](=O)[O-])n1CC(C)O (stereo not shown) | 1.35 |
| CN1CCN(CCCN2c3ccccc3Sc3ccc(Cl)cc32)CC1 | -0.47 |
| Cl.Nc1c2c(nc3c1CCC3)CCCC2 | -0.08 |
| Clc1cccc(Cl)c1NC1=NCCN1 | 0.34 |
| CC(C)c1ccc2c(c1)c(SC(C)(C)C)c(CC(C)(C)C(=O)O)n2Cc1ccc(Cl)cc1 | 0.23 |
| C[C@]12CC[C@@H]3c4ccc(OS(=O)(=O)[O-])cc4CC[C@H]3[C@@H]1CCC2=O.[Na+] | 0.37 |
| O=C1N(c2ccccc2)c2ccccc2C1(Cc1ccncc1)Cc1ccncc1 | -0.78 |
| Cc1c(O)c(=O)ccn1C | 0.19 |
| CCc1oc2ccccc2c1C(=O)c1cc(Br)c(O)c(Br)c1 | 0.47 |
| COc1cc(-c2ccc(=O)[nH]n2)ccc1OC(F)F | 0.32 |
| O=C(NCCN1CCOCC1)c1ccc(Cl)cc1 | -0.92 |
| O=C1N[C@H](C(=O)O)CS1 | 0.84 |
| CCN(CC)CC1CCCCN1CC(=O)N1c2ccccc2C(=O)Nc2cccnc21 (stereo not shown) | 1 |
| CS(=O)(=O)O.O=C1CC2(CCCC2)CC(=O)N1CCNCC1COc2ccccc2O1 (stereo not shown) | 0.35 |
| Clc1ccc2c(c1)CCc1cccnc1C2=C1CCNCC1 | 0.4 |
| CO[C@H]1O[C@@H]2O[C@@]3(C)CC[C@H]4[C@H](C)CC[C@@H]([C@H]1C)[C@@]24OO3 | -1.01 |
| OC[C@H]1O[C@@H](n2cnc3c(N[C@H]4CCC[C@@H]4O)ncnc32)[C@H](O)[C@@H]1O | -0.71 |
| O=C([O-])Cc1ccccc1Nc1c(Cl)cccc1Cl.[Na+] | 0.02 |
| Oc1cc2c(cc1O)[C@@H]1c3ccccc3CN[C@H]1CC2 | 0.99 |
| C=CC1=C(C(=O)O)N2C(=O)[C@@H](NC(=O)/C(=N\O)c3csc(N)n3)[C@H]2SC1 | 0.68 |
| C[C@]12C=CC(=O)C=C1CC[C@@H]1[C@@H]2[C@@H](O)C[C@@]2(C)[C@H]1CC[C@]2(O)C(=O)COC(=O)CCC(=O)[O-].[Na+] | 0.67 |
| C[C@H](N[C@@H](CCc1ccccc1)C(=O)O)C(=O)N1CCC[C@H]1C(=O)O | -0.43 |
| CC(=O)SCC(Cc1ccccc1)C(=O)NCC(=O)OCc1ccccc1 (stereo not shown) | 0 |
| CCC(C)(C)NC(=Nc1cccnc1)NC#N | 0.49 |
| CN(Cc1cnc2nc(N)nc(N)c2n1)c1ccc(C(=O)N[C@@H](CCC(=O)O)C(=O)O)cc1 | 0.85 |
| CC[C@@H](C(N)=O)N1CCCC1=O | -0.28 |

| SMILES | Z-SCORE |
| --- | --- |
| CC1(C)S[C@@H]2[C@H](/N=C/N3CCCCCC3)C(=O)N2[C@H]1C(=O)O | 1.1 |
| Cc1cccc(CCN2CCC(C(=O)c3ccc(NS(C)(=O)=O)cc3)CC2)n1.Cl.Cl | -0.17 |
| CC(=O)NCCCCCCNC(C)=O | 1.08 |
| CCOC(=O)C1(CCCCCCOc2ccc(Cl)cc2)CO1 (stereo not shown) | 0.96 |
| N=C(N)NC(=O)c1nc(Cl)c(N)nc1N | 0.85 |
| CN1CC(=O)N2[C@H](c3ccc4c(c3)OCO4)c3[nH]c4ccccc4c3C[C@@H]2C1=O | 0.97 |
| CCCc1nc2c(C)cc(-c3nc4ccccc4n3C)cc2n1Cc1ccc(-c2ccccc2C(=O)O)cc1 | 0.38 |
| CCN(CC)C(=S)SSC(=S)N(CC)CC | -0.22 |
| CS(=O)(=O)c1ccc(-c2cc(Br)sc2-c2ccc(F)cc2)cc1 | 0.49 |
| CCCCC(=O)N(Cc1ccc(-c2ccccc2-c2nnn[nH]2)cc1)[C@H](C(=O)O)C(C)C | -0.23 |
| CC(Cc1ccccc1)(NC(=O)CN)c1ccccc1 (racemic) | 0.97 |
| Cl.OC1CCCCC1N1CCC(c2ccccc2)CC1 (racemic) [(±)-Vesamicol hydrochloride] | -0.04 |
| O=C1c2c(O)cc(O)cc2OC(c2ccc(O)c(O)c2)C1O (racemic) [TAXIFOLIN-(+/-)] | -0.12 |
| C[N+]1(C)CCN(c2ccccc2)CC1.[I-] [1,1-DIMETHYL-4-PHENYLPIPERAZINIUM IODIDE] | 2.45 |
| c1ccc(Cn2ccnc2)cc1 [1-BENZYLIMIDAZOLE] | -0.1 |
| Nc1ccn([C@H]2CC[C@@H](CO)O2)c(=O)n1 [2',3'-DIDEOXYCYTIDINE] | 1.38 |
| O=c1[nH]cnc2c1ncn2[C@H]1CC[C@@H](CO)O1 [2',3'-DIDEOXYINOSINE] | -0.13 |
| NCCc1ccccn1 [2-(2-AMINOETHYL)PYRIDINE] | 2.15 |
| Nc1nc(Cl)nc2c1ncn2[C@@H]1O[C@H](CO)[C@@H](O)[C@H]1O [2-CHLOROADENOSINE] | 0.61 |
| Nc1ncnc2c1ncn2[C@@H]1O[C@H](CO)C[C@H]1O [3'-Deoxydenosine, reference compound] | 5.88 |
| Nc1ccc(O)c(C(=O)O)c1 [5-Amino-2-hydroxy-benzoic acid] | 1.62 |
| Nc1nc(=O)[nH]cc1F [5-FLUOROCYTOSINE] | -0.59 |
| COc1ccc2[nH]cc(CCN)c2c1 [5-Methoxytryptamine] | 0.65 |
| O=c1ncc(F)c[nH]1 [5-fluoro-2-pyrimidone] | -0.03 |
| Nc1ccc2cn[nH]c2c1 [6-AMINOINDAZOLE] | 0.45 |

same assay, conditions: compounds at 10 μM, 24 h; PC12 split TEV assay cells co-cultured with Nrg1-expressing PC12 cells; analysed with cellHTS2

| SMILES | Z-SCORE |
| --- | --- |
| CNCC(O)c1ccc(O)c(O)c1.Cl (racemic) [(+/-)-Epinephrine hydrochloride, reference compound] | -0.69 |
| Cl.NCC(O)c1ccc(O)c(O)c1 (racemic) [(+/-)-NOREPINEPHRINE HYDROCHLORIDE, reference compound] | 1.11 |
| CC(C)(S)C(N)C(=O)O (racemic) [DL-PENICILLAMINE, reference compound] | 2.02 |
| COc1ccc([C@@H]2Sc3ccccc3N(CCN(C)C)C(=O)[C@@H]2OC(C)=O)cc1.Cl (relative stereo) [(+)-CIS-DILTIAZEM HYDROCHLORIDE, reference compound] | -0.13 |
| Nc1nc(Cl)nc2c1ncn2[C@H]1C[C@H](O)[C@@H](CO)O1 [2-Chloro-2'-deoxyadenosine, reference compound] | -3.5 |
| Nc1ncnc2c1ncn2[C@@H]1O[C@H](CO)C[C@H]1O [3'-Deoxydenosine, reference compound] | 5.88 |
| CC(=O)O.NCc1ccc(S(N)(=O)=O)cc1 [4-(AMINOMETHYL)BENZENESULFONAMIDE ACETATE, reference compound] | 0.49 |
| Nc1ncn([C@@H]2O[C@H](CO)[C@@H](O)[C@H]2O)c(=O)n1 [5-Azacytidine, reference compound] | flagged |
| O=c1[nH]cc(F)c(=O)[nH]1 [5-FLUOROURACIL, reference compound] | -1.82 |
